Read-outs that look alike come from different tables or passages of the source.
Legend:
Format in all cases: cell-based
[1] = tested on: P. falciparum CQ-sensitive (Pf3D7); experiment: SYBR Green I assay, asynchronous cultures, CQ-sensitive clone; details: Plasmodium falciparum, read-out: Pf3D7 IC50, nM (±SD)
Protocol: Initially, antimalarial activity of Compound I was assessed on asynchronous cultures of P. falciparum sensitive (Pf3D7) clone using the SYBR Green assay. […] DMSO was used as a vehicle control, CQ (Chloroquine), DOX (Doxycycline) and DHA (Dihydroartemisinin).

[2] = tested on: P. falciparum CQ-resistant (PfDd2); experiment: SYBR Green I assay, asynchronous cultures, CQ-resistant clone; details: Plasmodium falciparum, read-out: PfDd2 IC50, nM (±SD)
[3] = tested on: Field isolates from Kenya (P. falciparum infected blood); experiment: Screening against freshly collected field isolates; details: Plasmodium falciparum, read-out: Field isolates from Kenya IC50, nM (±SD)
[4] = asynchronous cultures, 37° C., 72 hours, SYBR Green I

IC50 [1, 4] [nM]	IC50 [2, 4] [nM]	IC50 ([3]; Table 1) [nM]	Structure (SMILES)	IC50 ([1]; 72 h) [nM]	IC50 ([2]; 72 h) [nM]	IC50 [3] [nM]
–	–	–	CCN(CC)CCCC(C)Nc1ccnc2cc(Cl)ccc12 (stereo not drawn) [Chloroquine, reference compound]	32.3	137	75.2
27	46	7.37	C[C@H]1[C@@H](O)O[C@@H]2O[C@@]3(C)CC[C@H]4[C@H](C)CC[C@@H]1[C@@]24OO3 [Dihydroartemisinin, reference compound]	–	–	–

Source: patent US11485714B2, “Hydroxyethylamine-based piperazine compounds, and methods of producing and using the same for treating disease” (National Institute of Immunology, priority 2020, dated 2022)
